Laboratory results taken from patent US4698344A, “1-Heteroaryl-4-aryl-pyrazolin-5-ones for use as medicaments” (priority 1984, dated 1987).

Assays:
12-lipoxygenase = target: T1, 12-lipoxygenase (Homo sapiens, UniProt P18054); test: Arachidonic acid metabolism in human platelets: 12-lipoxygenase activity; type: cell-based
T1 construct: washed human platelets; endogenous in cells; host or cells: washed human platelets
T1 sequence (P18054 1-663): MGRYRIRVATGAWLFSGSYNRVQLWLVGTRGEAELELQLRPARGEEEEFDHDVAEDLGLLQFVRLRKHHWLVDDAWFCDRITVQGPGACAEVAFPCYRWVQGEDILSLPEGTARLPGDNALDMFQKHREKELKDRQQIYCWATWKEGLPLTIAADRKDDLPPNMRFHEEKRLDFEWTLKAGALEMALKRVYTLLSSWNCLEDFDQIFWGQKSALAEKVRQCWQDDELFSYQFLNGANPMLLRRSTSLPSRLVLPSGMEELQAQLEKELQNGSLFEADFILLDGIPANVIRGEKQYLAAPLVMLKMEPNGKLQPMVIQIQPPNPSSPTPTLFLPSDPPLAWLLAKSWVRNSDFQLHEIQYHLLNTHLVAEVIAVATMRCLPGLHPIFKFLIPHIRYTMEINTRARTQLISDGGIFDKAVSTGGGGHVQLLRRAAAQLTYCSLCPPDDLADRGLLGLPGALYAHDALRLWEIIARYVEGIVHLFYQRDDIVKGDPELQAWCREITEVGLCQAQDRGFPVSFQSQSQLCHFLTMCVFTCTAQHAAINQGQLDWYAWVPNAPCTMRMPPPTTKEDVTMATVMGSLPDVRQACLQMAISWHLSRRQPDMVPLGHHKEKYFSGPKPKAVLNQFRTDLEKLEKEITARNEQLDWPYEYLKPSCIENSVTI
Experimental: (§1) The metabolism of radioactively labelled arachidonic acid on washed human platelets is utilised in this test method. In this in vitro test, the radioactively labelled metabolites are extracted from the reaction mixture and separated by thin layer chromatography. The autoradiogram is evaluated with a thin layer scanner. Under these test conditions, the labelled metabolites are separated from the unreacted arachidonic acid and can then be evaluated quantitatively.

5-lipoxygenase = target: T2, 5-lipoxygenase (Homo sapiens, UniProt P09917); test: Lipoxygenase activity (LTB4 synthesis) in human PMN leukocytes stimulated with A 23187; type: cell-based; settings: for inhibition at 10 µg/mL: at 10 μg/ml, read-out: Inhibition of LTB4 synthesis in human PMN's; for Effective threshold concentration, inhibition of LTB4 synthesis: human PMN's
T2 construct: endogenous in cells; host or cells: human polymorphonuclear leukocytes from heparinized whole blood
T2 sequence (P09917 1-674): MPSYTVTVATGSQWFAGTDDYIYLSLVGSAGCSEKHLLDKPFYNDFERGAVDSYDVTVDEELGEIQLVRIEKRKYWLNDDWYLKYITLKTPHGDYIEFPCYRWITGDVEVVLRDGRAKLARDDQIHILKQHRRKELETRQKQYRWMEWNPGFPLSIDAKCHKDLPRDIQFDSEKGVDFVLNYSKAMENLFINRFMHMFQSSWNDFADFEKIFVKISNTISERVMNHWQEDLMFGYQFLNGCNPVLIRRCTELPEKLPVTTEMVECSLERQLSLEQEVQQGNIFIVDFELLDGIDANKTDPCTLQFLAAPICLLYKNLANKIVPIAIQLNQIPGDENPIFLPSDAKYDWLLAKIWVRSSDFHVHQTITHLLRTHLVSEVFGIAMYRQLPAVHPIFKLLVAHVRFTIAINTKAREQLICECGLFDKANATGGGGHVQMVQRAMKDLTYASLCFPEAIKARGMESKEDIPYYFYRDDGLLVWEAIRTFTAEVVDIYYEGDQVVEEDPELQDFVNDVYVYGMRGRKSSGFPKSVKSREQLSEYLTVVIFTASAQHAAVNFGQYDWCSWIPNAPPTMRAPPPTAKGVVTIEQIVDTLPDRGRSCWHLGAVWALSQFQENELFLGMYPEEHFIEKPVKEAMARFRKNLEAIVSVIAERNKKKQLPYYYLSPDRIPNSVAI
Experimental: The polymorphonuclear leukocytes of humans metabolize arachidonic acid to give 5-hydroxy-5,8,11,14-eicosatetraenoic acid (5-HETE) and leukotriene B4 (5S, 12R-dihydroxy-6-cis, 8,10-trans-14ciseicosatetraenoic acid). Inhibition of the release of 5-HETE and leukotriene B4 from leukocytes is a measure of the lipoxygenase-inhibiting effect of the compounds according to the invention.
After 15 minutes, the lipoxygenase products were extracted from the acidified incubation medium and separated by means of HPLC.

cyclooxygenase [1] = target: T3, cyclooxygenase (Homo sapiens, UniProt P23219); test: Arachidonic acid metabolism in human platelets: cyclooxygenase activity; type: cell-based
T3 construct: washed human platelets; endogenous in cells; host or cells: washed human platelets
Experimental: as §1

cyclooxygenase [2] = target: T4, cyclooxygenase (Rattus norvegicus, UniProt Q63921); test: Cyclooxygenase activity in homogenates of RBL-1 cells; type: biochemical; settings: concentration 0.5-1 μg/ml; negative = inhibition
T4 construct: homogenates of RBL-1 cells; endogenous in cells; host or cells: RBL-1 (rat basophilic leukaemia) cells, homogenate
T4 sequence (Q63921 27-602): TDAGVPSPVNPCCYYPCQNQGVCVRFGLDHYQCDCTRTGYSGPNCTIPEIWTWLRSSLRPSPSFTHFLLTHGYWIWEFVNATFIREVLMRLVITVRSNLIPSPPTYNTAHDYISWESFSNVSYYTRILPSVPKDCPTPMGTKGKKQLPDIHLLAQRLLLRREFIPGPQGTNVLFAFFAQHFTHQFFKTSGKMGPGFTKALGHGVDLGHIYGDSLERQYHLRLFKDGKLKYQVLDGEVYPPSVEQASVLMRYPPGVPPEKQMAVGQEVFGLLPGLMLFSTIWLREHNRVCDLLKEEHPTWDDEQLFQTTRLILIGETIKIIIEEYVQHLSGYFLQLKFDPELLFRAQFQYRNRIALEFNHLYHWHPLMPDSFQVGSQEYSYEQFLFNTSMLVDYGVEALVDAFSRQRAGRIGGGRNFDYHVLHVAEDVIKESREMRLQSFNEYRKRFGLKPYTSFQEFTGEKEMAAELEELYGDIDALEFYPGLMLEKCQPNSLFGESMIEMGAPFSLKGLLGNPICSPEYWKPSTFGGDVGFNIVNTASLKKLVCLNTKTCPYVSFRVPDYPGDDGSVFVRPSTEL
Description: (§2) Basophilic leukaemia cells from rats (RBL-1) synthesize both lipoxygenase and cyclooxygenase products from ^14 C-arachidonic acid with which they are supplied. […] The products formed were separated by thin layer chromatography and quantified in a scanner.

lipoxygenase = target: T5, lipoxygenase (Rattus norvegicus, UniProt P12527); test: Lipoxygenase activity in homogenates of RBL-1 cells; type: biochemical; settings: concentration 0.5-1 μg/ml; negative = inhibition
T5 construct: homogenates of RBL-1 cells; endogenous in cells; host or cells: RBL-1 (rat basophilic leukaemia) cells, homogenate
T5 sequence (P12527 1-673): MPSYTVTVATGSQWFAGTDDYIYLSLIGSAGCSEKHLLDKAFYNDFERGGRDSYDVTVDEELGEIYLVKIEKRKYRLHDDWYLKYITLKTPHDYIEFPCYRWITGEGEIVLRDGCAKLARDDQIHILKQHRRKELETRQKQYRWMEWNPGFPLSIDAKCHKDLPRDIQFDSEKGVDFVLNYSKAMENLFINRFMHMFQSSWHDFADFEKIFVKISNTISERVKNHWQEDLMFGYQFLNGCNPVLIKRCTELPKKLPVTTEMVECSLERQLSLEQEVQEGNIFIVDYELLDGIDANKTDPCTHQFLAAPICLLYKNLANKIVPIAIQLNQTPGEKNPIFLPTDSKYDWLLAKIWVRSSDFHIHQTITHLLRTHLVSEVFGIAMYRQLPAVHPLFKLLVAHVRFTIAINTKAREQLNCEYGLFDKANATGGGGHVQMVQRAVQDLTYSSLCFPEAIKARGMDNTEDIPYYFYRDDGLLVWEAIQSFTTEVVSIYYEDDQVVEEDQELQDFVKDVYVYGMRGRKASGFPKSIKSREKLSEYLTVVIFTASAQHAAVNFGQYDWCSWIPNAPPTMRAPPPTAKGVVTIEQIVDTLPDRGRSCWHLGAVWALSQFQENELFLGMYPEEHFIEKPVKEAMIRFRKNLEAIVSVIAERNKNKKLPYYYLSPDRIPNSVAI
Description: as §2

[3] = tested on: carrageenan-induced oedema of the rat paw; test: Carrageenan-induced oedema of the rat paw; type: in vivo; settings: oral, 2.5 mg/kg, rats, 5 hours after oedema provocation
Experimental: The antiinflammatory action of the test substances following oral administration was determined with the aid of carrageenan-induced oedema of the rat paw.
The experiments were carried out with male rats, strain: Bor:WLSW (SPF-Cpb); weight 150 to 220 g. One hour before inducing the oedema (0.1 ml of carrageenan suspension/animal, subplantar injection), the substance to be tested was administered to the animals as a suspension in tragacanth with the aid of a stomach tube; as a control, a second group of animals was treated with tragacanth without the substance.
The paw volumes were measured by the method of F. Kemper and G. Ameln Z. exp.

cyclooxygenase [4] = settings: background statement; cited from earlier work
[5] = tested on: release of leukotrienes (SRS-A); test: Passive peritoneal anaphylaxis (rats); type: in vivo, rat; settings: 100 mg/kg perorally
Experimental: The effect of substances on the release of mediators, in particular the release of leukotrienes, is recorded with this in vivo method. […] Histamine is not released during this, so that the lipoxygenase-inhibiting action of test substances can be investigated selectively.

T3 sequence (P23219 24-599): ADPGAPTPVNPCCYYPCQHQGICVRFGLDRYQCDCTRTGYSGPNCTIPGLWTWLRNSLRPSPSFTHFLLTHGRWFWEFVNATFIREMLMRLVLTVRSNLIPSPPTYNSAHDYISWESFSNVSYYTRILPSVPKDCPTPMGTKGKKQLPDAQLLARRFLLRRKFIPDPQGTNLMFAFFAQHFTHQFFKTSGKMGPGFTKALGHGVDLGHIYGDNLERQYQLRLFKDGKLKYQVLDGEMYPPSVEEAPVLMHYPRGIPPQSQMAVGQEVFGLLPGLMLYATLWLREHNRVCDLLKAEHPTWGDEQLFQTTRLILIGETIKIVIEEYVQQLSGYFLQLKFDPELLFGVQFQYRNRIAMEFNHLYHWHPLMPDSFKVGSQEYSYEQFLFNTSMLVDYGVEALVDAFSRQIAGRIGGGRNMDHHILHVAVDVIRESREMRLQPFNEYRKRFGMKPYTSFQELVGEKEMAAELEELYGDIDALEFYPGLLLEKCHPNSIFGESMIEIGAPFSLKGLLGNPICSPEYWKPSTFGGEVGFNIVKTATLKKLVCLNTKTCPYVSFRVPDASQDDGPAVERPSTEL

| SMILES | Action on cyclooxygenase (CO): Effect (cyclooxygenase [2]) | Action on lipoxygenase (LO): Effect (lipoxygenase) [%] | % inhibition of the carrageenan oedema [3] [%] | further results |
| --- | --- | --- | --- | --- |
| Cc1[nH]n(-c2ccc(Cl)cn2)c(=O)c1-c1ccccc1 [Example 63] |  |  |  | Inhibition (threshold concentration), 12-lipoxygenase (12-lipoxygenase): 1 to 10 µg/mL; inhibition at 10 µg/mL (5-lipoxygenase): 100%; Effective threshold concentration, inhibition of LTB4 synthesis (5-lipoxygenase): 1 to 10 µg/mL; Inhibition (threshold concentration), cyclooxygenase (cyclooxygenase [1]): 1 to 10 µg/mL |
| O=c1c(-c2ccc(Cl)c(Cl)c2)c[nH]n1-c1ccccn1 [Example 16] | -19% | -76 |  | Inhibition (threshold concentration), 12-lipoxygenase (12-lipoxygenase): 1 to 10 µg/mL; inhibition at 10 µg/mL (5-lipoxygenase): 85%; Effective threshold concentration, inhibition of LTB4 synthesis (5-lipoxygenase): 1 to 10 µg/mL; Inhibition (threshold concentration), cyclooxygenase (cyclooxygenase [1]): 1 to 10 µg/mL |
| O=c1c(-c2ccccc2)c[nH]n1-c1ncc(Cl)cn1 [Example 130] |  |  | 38 |  |
| O=c1c(-c2ccccc2)c[nH]n1-c1ccc([N+](=O)[O-])cn1 [Example 69] |  |  | 34 |  |
| COc1ccccc1-c1c[nH]n(-c2ccc(Cl)cn2)c1=O [Example 58] | -17% | -66 |  |  |
| O=c1c(-c2ccccc2)c[nH]n1-c1ncccn1 [Example 103, 1-pyrimid-2-yl-4-phenyl-pyrazolin-5-one] |  | -42 |  |  |
| O=c1c(-c2ccc(C(F)(F)F)cc2)c[nH]n1-c1ncc(Cl)cn1 [Example 135] |  |  | 46 |  |
| CC(Cc1ccc(O)c(O)c1)C(C)Cc1ccc(O)c(O)c1 (centres unmarked) [nordihydroguaretic acid] |  |  |  | cyclooxygenase activity / potency of known lipoxygenase inhibitors (in words) (cyclooxygenase [4]): either simultaneously active as cyclooxygenase inhibitors or active only at very high concentrations |
| O=C1CCN(c2ccccc2)N1 [phenidone] |  |  |  | cyclooxygenase activity / potency of known lipoxygenase inhibitors (in words) (cyclooxygenase [4]): either simultaneously active as cyclooxygenase inhibitors or active only at very high concentrations |
| O=c1c(-c2ccc(C(F)(F)F)cc2)c[nH]n1-c1ccccn1 [Example 28] | +5% | -58 | 21 |  |
| Cc1cccc(-c2c[nH]n(-c3ccccn3)c2=O)c1 [Example 25] |  |  |  | % inhibition, passive peritoneal anaphylaxis [5]: 64% |
| COc1ccc(-c2c[nH]n(-c3ccccn3)c2=O)cc1 [Example 18] |  |  | 22 |  |
| Cc1ccccc1-c1c[nH]n(-c2ccccn2)c1=O [Example 24] | -2% | -34 |  |  |
| COc1ccc(-c2c[nH]n(-c3ncccn3)c2=O)cc1 [Example 113] | -11% | -71 |  |  |
| Cc1[nH]n(-c2ccccn2)c(=O)c1-c1ccccc1 [Example 49] |  |  | 16 |  |
| O=c1c(-c2ccccc2F)c[nH]n1-c1ccccn1 [Example 8] | +3% | -73 |  | Inhibition (threshold concentration), 12-lipoxygenase (12-lipoxygenase): 1 to 10 µg/mL; inhibition at 10 µg/mL (5-lipoxygenase): 71%; Effective threshold concentration, inhibition of LTB4 synthesis (5-lipoxygenase): 1 to 10 µg/mL; Inhibition (threshold concentration), cyclooxygenase (cyclooxygenase [1]): 1 to 10 µg/mL |
| O=c1c(-c2ccccc2F)c[nH]n1-c1ncccn1 [Example 104] | +23% | -46 |  |  |
| O=c1c(-c2cccc(C(F)(F)F)c2)c[nH]n1-c1ccccn1 [Example 27] |  |  |  | % inhibition, passive peritoneal anaphylaxis [5]: 47% |
| CCCCCC#CCC#CCC#CCC#CCCCC(=O)O [5,8,11,14-eicosatetraynoic acid] |  |  |  | cyclooxygenase activity / potency of known lipoxygenase inhibitors (in words) (cyclooxygenase [4]): either simultaneously active as cyclooxygenase inhibitors or active only at very high concentrations |
